{
  "source": "ChEMBL document CHEMBL4364277",
  "about": "“Medicinal prospects of antioxidants: A review” (Eur J Med Chem, 2019)",
  "key": {"[1]": {"test": "Anti glycation activity assessed as inhibition of BSA glycation after 7 days in presence of glucose by spectrofluorimetry assay", "format": "functional"}, "[2]": {"test": "Antioxidant activity assessed as DPPH radical scavenging activity after 30 mins", "format": "functional"}, "[3]": {"system": "Rattus norvegicus", "test": "Anti-inflammatory activity in rat assessed as inhibition of formalin-induced paw edema at 20 mg/kg, po pretreated for 1 hr followed by formalin addition measured up to 6 hrs relative to control", "format": "functional"}, "[4]": {"system": "MCF7", "test": "Cytotoxicity against human MCF7 cells after 48 hrs by MTT assay", "format": "functional, cell-based", "details": "MCF7, 48 h"}, "[5]": {"system": "Rattus norvegicus", "test": "Anti-inflammatory activity in rat assessed as inhibition of formalin-induced paw edema administered as po dose pretreated for 1 hr followed by formalin addition measured up to 6 hrs relative to control", "format": "functional"}, "[6]": {"test": "Hemolytic activity in human RBC relative to control", "format": "cell-based, Erythrocyte", "details": "red blood cells (erythrocytes), read-out: Activity"}},
  "data": [
    {"smiles": "Oc1ccc(O)c(-c2nc3ncc(Cl)cc3[nH]2)c1", "values": [
      {"measurement": "IC50", "setting": "[1]", "result": 240, "unit": "µM"},
      {"measurement": "IC50", "setting": "[2]", "result": 72.5, "unit": "µM"}
    ]},
    {"smiles": "Oc1ccc(-c2nc3ncc(Cl)cc3[nH]2)c(O)c1", "values": [
      {"measurement": "IC50", "setting": "[1]", "result": 240, "unit": "µM"},
      {"measurement": "IC50", "setting": "[2]", "result": 58.1, "unit": "µM"}
    ]},
    {"smiles": "COc1ccc2c(c1)c(CC(=O)O)c(C)n2C(=O)c1ccc(Cl)cc1", "note": "[INDOMETHACIN]", "values": [
      {"measurement": "inhibition in vivo at 20 mg/kg", "setting": "[3]", "result": 54.5, "unit": "%"}
    ]},
    {"smiles": "Cc1nnc(N2C(=O)CSC2c2ccccc2[N+](=O)[O-])s1", "note": "(centres undefined)", "values": [
      {"measurement": "IC50", "setting": "[4]", "result": 46.3, "unit": "µM"}
    ]},
    {"smiles": "O=c1oc2ccc(Cl)cc2cc1-c1nc2ccccc2[nH]1", "values": [
      {"measurement": "inhibition (INH)", "setting": "[5]", "result": 46.75, "unit": "%"}
    ]},
    {"smiles": "O=C(Nc1nc2ccccc2[nH]1)c1cc2ccccc2oc1=O", "values": [
      {"measurement": "inhibition (INH)", "setting": "[5]", "result": 42.85, "unit": "%"}
    ]},
    {"smiles": "O=C(Cc1cc(=O)oc2cc(O)ccc12)Nc1nc2ccccc2o1", "values": [
      {"measurement": "hemolysis", "setting": "[6]", "result": 92.5, "unit": "%"}
    ]}
  ]
}
